According to PubChem BioAssay AID2060907 (Molecular Pharmacology Branch, DTP, NCI, 2025):

Tested on: 388556-164-R-J1-PDC complex spheroid viability
Assay: Anticancer human tumor 388556-164-R-J1-PDC patient-derived colon adenocarcinoma cell line growth inhibition [RAS]
Settings: for IC50: curve of first compound; for viability, T/C: stronger effect = lower value
In short: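 Multi-cell-type spheroids: tumor cells plus HUVEC endothelial cells and mesenchymal stem cells. RAS-pathway inhibitors were combined with targeted agents, each dosed in half-log steps down from clinical Cmax, or from 10 microM when Cmax was unknown.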
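Further: spheroids exposed to compound for 7 days before readout.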
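Wherever viability, T/C is given: 100% = DMSO vehicle control luminescence.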

## CC(=O)OC12COC1CC(O)C1(C)C(=O)C(O)C3=C(C)C(OC(=O)C(O)C(NC(=O)OC(C)(C)C)c4ccccc4)CC(O)(C(OC(=O)c4ccccc4)C21)C3(C)C (centres undefined) + C=CC(=O)N1CCN(c2nc(OCC3CCCN3C)nc3c(F)c(-c4nc(N)cc(C)c4C(F)(F)F)c(Cl)cc23)C(C)C1
Second compound 0.00316 µM
  IC50: > 10000 nM
Second compound 0.01 µM
  IC50: > 10000 nM
Second compound 0.0316 µM
  IC50: > 10000 nM
Second compound 0.1 µM
  IC50: > 10000 nM
Second compound 0.316 µM
  IC50: > 10000 nM
Second compound 1 µM
  IC50: > 10000 nM
Second compound 0.00316 µM, first compound 0.0316 µM
  viability, T/C: 88.1%
Second compound 0.00316 µM, first compound 0.1 µM
  viability, T/C: 80.7%
Second compound 0.00316 µM, first compound 0.316 µM
  viability, T/C: 77%
Second compound 0.00316 µM, first compound 1 µM
  viability, T/C: 75.7%
Second compound 0.00316 µM, first compound 3.16 µM
  viability, T/C: 74.6%
Second compound 0.00316 µM, first compound 10 µM
  viability, T/C: 71.2%
Second compound 0.01 µM, first compound 0.0316 µM
  viability, T/C: 82.8%
Second compound 0.01 µM, first compound 0.1 µM
  viability, T/C: 78.8%
Second compound 0.01 µM, first compound 0.316 µM
  viability, T/C: 70.5%
Second compound 0.01 µM, first compound 1 µM
  viability, T/C: 80.3%
Second compound 0.01 µM, first compound 3.16 µM
  viability, T/C: 79.4%
Second compound 0.01 µM, first compound 10 µM
  viability, T/C: 71.8%
Second compound 0.0316 µM, first compound 0.0316 µM
  viability, T/C: 84.4%
Second compound 0.0316 µM, first compound 0.1 µM
  viability, T/C: 83.4%
Second compound 0.0316 µM, first compound 0.316 µM
  viability, T/C: 84.7%
Second compound 0.0316 µM, first compound 1 µM
  viability, T/C: 76.9%
Second compound 0.0316 µM, first compound 3.16 µM
  viability, T/C: 76%
Second compound 0.0316 µM, first compound 10 µM
  viability, T/C: 71.3%
Second compound 0.1 µM, first compound 0.0316 µM
  viability, T/C: 78.3%
Second compound 0.1 µM, first compound 0.1 µM
  viability, T/C: 69.5%
Second compound 0.1 µM, first compound 0.316 µM
  viability, T/C: 72.4%
Second compound 0.1 µM, first compound 1 µM
  viability, T/C: 74%
Second compound 0.1 µM, first compound 3.16 µM
  viability, T/C: 78.4%
Second compound 0.1 µM, first compound 10 µM
  viability, T/C: 73.2%
Second compound 0.316 µM, first compound 0.0316 µM
  viability, T/C: 78.6%
Second compound 0.316 µM, first compound 0.1 µM
  viability, T/C: 81.4%
Second compound 0.316 µM, first compound 0.316 µM
  viability, T/C: 79.1%
Second compound 0.316 µM, first compound 1 µM
  viability, T/C: 74.5%
Second compound 0.316 µM, first compound 3.16 µM
  viability, T/C: 72.7%
Second compound 0.316 µM, first compound 10 µM
  viability, T/C: 76.6%
Second compound 1 µM, first compound 0.0316 µM
  viability, T/C: 87.6%
Second compound 1 µM, first compound 0.1 µM
  viability, T/C: 79.3%
Second compound 1 µM, first compound 0.316 µM
  viability, T/C: 74.9%
Second compound 1 µM, first compound 1 µM
  viability, T/C: 82.8%
Second compound 1 µM, first compound 3.16 µM
  viability, T/C: 76%
Second compound 1 µM, first compound 10 µM
  viability, T/C: 70.5%

## CCc1c2c(nc3ccc(O)cc13)-c1cc3c(c(=O)n1C2)COC(=O)[C@]3(O)CC + C=CC(=O)N1CCN(c2nc(OCC3CCCN3C)nc3c(F)c(-c4nc(N)cc(C)c4C(F)(F)F)c(Cl)cc23)C(C)C1
Second compound 0.00316 µM
  IC50: 98.4 nM
Second compound 0.01 µM
  IC50: 119 nM
Second compound 0.0316 µM
  IC50: 86.1 nM
Second compound 0.1 µM
  IC50: 74.8 nM
Second compound 0.316 µM
  IC50: 97.2 nM
Second compound 1 µM
  IC50: 96.3 nM
Second compound 0.00316 µM, first compound 0.000949 µM
  viability, T/C: 103%
Second compound 0.00316 µM, first compound 0.003 µM
  viability, T/C: 97.2%
Second compound 0.00316 µM, first compound 0.00949 µM
  viability, T/C: 78%
Second compound 0.00316 µM, first compound 0.03 µM
  viability, T/C: 67.3%
Second compound 0.00316 µM, first compound 0.0949 µM
  viability, T/C: 53.7%
Second compound 0.00316 µM, first compound 0.3 µM
  viability, T/C: 29.9%
Second compound 0.01 µM, first compound 0.000949 µM
  viability, T/C: 110%
Second compound 0.01 µM, first compound 0.003 µM
  viability, T/C: 95.5%
Second compound 0.01 µM, first compound 0.00949 µM
  viability, T/C: 81.4%
Second compound 0.01 µM, first compound 0.03 µM
  viability, T/C: 72%
Second compound 0.01 µM, first compound 0.0949 µM
  viability, T/C: 58.3%
Second compound 0.01 µM, first compound 0.3 µM
  viability, T/C: 31.9%
Second compound 0.0316 µM, first compound 0.000949 µM
  viability, T/C: 99.9%
Second compound 0.0316 µM, first compound 0.003 µM
  viability, T/C: 98.8%
Second compound 0.0316 µM, first compound 0.00949 µM
  viability, T/C: 80.2%
Second compound 0.0316 µM, first compound 0.03 µM
  viability, T/C: 65.2%
Second compound 0.0316 µM, first compound 0.0949 µM
  viability, T/C: 51.4%
Second compound 0.0316 µM, first compound 0.3 µM
  viability, T/C: 23.3%
Second compound 0.1 µM, first compound 0.000949 µM
  viability, T/C: 102%
Second compound 0.1 µM, first compound 0.003 µM
  viability, T/C: 93.3%
Second compound 0.1 µM, first compound 0.00949 µM
  viability, T/C: 74.4%
Second compound 0.1 µM, first compound 0.03 µM
  viability, T/C: 61.3%
Second compound 0.1 µM, first compound 0.0949 µM
  viability, T/C: 51%
Second compound 0.1 µM, first compound 0.3 µM
  viability, T/C: 27.2%
Second compound 0.316 µM, first compound 0.000949 µM
  viability, T/C: 106%
Second compound 0.316 µM, first compound 0.003 µM
  viability, T/C: 92.7%
Second compound 0.316 µM, first compound 0.00949 µM
  viability, T/C: 82.4%
Second compound 0.316 µM, first compound 0.03 µM
  viability, T/C: 67%
Second compound 0.316 µM, first compound 0.0949 µM
  viability, T/C: 50.5%
Second compound 0.316 µM, first compound 0.3 µM
  viability, T/C: 32.7%
Second compound 1 µM, first compound 0.000949 µM
  viability, T/C: 107%
Second compound 1 µM, first compound 0.003 µM
  viability, T/C: 103%
Second compound 1 µM, first compound 0.00949 µM
  viability, T/C: 75.8%
Second compound 1 µM, first compound 0.03 µM
  viability, T/C: 68.1%
Second compound 1 µM, first compound 0.0949 µM
  viability, T/C: 55.2%
Second compound 1 µM, first compound 0.3 µM
  viability, T/C: 28.8%
